Assay results as given in patent US20250268821A1 (AVALYN PHARMA INC., priority 2022, published 2025).
Read-outs that look alike come from different tables or passages of the source.

Tests used:
[1] = previously known; various salt forms; cited from earlier work
[2] = Pirfenidone-nintedanib interaction: physical stability of nintedanib solution in 67 mM sodium chloride; assay type: physicochemical; conditions: 0.25 mg/mL nintedanib, about 67 mM sodium chloride
[3] = in vivo; cited from earlier work
[4] = biological target: Src (Homo sapiens, UniProt P12931); conditions: cited from earlier work
Src, sequence (P12931 whole entry, species assumed): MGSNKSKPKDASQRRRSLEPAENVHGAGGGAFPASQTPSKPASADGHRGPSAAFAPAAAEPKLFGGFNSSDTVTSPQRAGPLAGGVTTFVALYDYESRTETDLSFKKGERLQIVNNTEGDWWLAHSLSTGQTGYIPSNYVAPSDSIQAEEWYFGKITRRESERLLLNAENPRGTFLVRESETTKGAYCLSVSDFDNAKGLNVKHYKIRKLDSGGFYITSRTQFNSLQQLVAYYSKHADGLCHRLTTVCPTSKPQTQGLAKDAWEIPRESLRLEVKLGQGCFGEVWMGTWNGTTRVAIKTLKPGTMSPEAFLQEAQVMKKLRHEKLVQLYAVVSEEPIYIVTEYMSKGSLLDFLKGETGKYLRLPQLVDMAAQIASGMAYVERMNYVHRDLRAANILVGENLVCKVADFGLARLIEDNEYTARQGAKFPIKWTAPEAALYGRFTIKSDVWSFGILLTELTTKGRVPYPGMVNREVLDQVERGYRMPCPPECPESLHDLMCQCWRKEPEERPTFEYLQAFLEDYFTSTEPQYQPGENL

[5] = biological target: T1, Flt-3 (Homo sapiens, UniProt P36888); conditions: cited from earlier work
T1 sequence (P36888 27-993): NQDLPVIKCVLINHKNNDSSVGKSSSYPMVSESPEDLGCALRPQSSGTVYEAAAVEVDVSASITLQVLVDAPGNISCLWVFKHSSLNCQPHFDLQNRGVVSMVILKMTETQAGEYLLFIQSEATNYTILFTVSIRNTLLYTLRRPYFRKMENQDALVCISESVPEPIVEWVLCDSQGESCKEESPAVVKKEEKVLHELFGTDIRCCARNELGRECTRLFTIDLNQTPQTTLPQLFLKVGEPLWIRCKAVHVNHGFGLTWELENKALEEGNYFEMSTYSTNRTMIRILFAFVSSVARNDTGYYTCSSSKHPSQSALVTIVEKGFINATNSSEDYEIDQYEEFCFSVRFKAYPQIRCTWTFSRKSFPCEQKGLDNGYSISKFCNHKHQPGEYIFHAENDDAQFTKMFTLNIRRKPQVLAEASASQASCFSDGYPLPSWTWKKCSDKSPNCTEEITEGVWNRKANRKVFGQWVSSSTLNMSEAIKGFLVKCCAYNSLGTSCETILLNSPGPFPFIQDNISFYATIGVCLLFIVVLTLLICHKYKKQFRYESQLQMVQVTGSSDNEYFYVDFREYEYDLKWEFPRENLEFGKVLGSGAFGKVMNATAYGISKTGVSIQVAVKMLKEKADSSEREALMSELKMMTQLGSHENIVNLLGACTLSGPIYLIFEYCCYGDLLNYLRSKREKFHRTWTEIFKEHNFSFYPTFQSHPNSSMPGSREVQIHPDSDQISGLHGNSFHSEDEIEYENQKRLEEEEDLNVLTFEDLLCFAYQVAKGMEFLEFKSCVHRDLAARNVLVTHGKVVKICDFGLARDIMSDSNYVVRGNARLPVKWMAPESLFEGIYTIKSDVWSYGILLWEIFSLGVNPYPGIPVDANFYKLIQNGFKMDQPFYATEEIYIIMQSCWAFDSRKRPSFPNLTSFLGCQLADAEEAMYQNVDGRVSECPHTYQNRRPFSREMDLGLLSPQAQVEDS

[6] = biological target: Lyn (Homo sapiens, UniProt P07948); conditions: cited from earlier work
Lyn, sequence (P07948 whole entry, species assumed): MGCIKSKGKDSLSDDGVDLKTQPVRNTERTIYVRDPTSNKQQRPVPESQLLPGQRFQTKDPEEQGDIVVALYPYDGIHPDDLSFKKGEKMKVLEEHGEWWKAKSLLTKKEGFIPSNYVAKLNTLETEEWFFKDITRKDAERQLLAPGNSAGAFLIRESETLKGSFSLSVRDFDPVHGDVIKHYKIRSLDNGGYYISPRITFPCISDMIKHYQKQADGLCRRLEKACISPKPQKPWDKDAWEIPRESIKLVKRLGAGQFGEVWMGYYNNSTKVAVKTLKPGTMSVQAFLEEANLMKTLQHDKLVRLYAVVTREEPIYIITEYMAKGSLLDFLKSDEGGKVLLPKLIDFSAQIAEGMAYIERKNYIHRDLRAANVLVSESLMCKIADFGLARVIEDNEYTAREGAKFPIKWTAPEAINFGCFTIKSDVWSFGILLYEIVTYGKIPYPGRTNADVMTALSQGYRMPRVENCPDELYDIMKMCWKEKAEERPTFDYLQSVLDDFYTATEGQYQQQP

[7] = Clinical study in healthy volunteers: inhaled nebulized vs oral nintedanib (ELF and plasma pharmacokinetics, safety); assay type: in vivo; conditions: human
Text: To characterize how dry powder nintedanib may perform in humans, a clinical study was first conducted comparing inhaled nebulized and oral nintedanib in healthy volunteers.

[8] = Sheep pharmacokinetics (ELF and plasma): nebulized inhaled nintedanib, fixed combination with pirfenidone, oral nintedanib; assay type: in vivo; conditions: for Cmax / AUC / half-life / Tmax: female, Merino cross-bred, sheep
Protocol: All animals had received standard vaccinations and were treated orally with anthelminthic (in line with standard management practices) prior to arrival at the animal facility to eliminate any worm parasites before experimentation. Experimental animals were rotated between indoor small group pen housing and metabolism cages under controlled ambient conditions (20-22° C.) and maintained on a 12 h light/dark throughout the experimental period. […] All formulations used in this study were stored at room temperature (RT) and protected from light prior to use; drugs were prepared on day of use. Sheep arrived into the facility as one group and were acclimatized over 2-3 weeks (group housing to indoor cage/pens) prior to experimentation. […] Group 1 sheep also received Treatment 1b, an addition/modification to the original study protocol. Treatments were administered over Weeks 3-9 of the study; each experimental Treatment was performed over a one week period in either Group 1 or Group 2 sheep (e.g., one group received Treatment while the other group was rested). Group 1 and Group 2 sheep were allocated separate sampling schedules for peripheral blood and bronchoalveolar lavage fluid (BALF) collections (Table 16). For nebulized aerosol drug administration to the lungs (inhalation dosing), a lubricated cuffed endotracheal (ET) tube (Portex, 7.0-8.0 mm internal diameter) was inserted via the nasal passage (guided by a fibre-optic endoscope) into the trachea. […] Respiration was set to 20 breaths/min, 50% inspiration and a tidal volume of 350 mL. Filters (Hudson RCl, NC, USA) were placed in the expiratory line to collect any expired drug dose. Following drug administration all lines, filters and nebulizer components were rinsed with 50 mL sterile saline to collect any remaining or expired dose. Washout sample aliquots (500 μl) were frozen on dry ice in 1.5 mL Eppendorf tubes, then stored at −80° C. prior to shipment for drug content analyses. Oral drug administration (Treatment 3) followed the procedure as detailed below (oral dosing optimization). A feeding tube (7 mm internal diameter) was inserted via the nasal passage (guided by a fibre-optic endoscope) into the upper region of the esophagus. […] Blood samples collected prior to and following drug administration (Table 16) were placed into K3EDTA-coated tubes. […] BALF samples were collected prior to and following drug administration ([…]). Sampling was carried out by intra-lung infusion of 25 ml of sterile saline via a catheter through the biopsy port of the bronchoscope, followed by immediate retrieval of the BALF sample into the collection syringe. BALF was collected from separate lung segments/lobes to avoid contamination between sampling time-points: the right apical lobe (RA) was used for all pre-dose sampling and post-dose samples were collected from right middle (RM); right caudal (RC); left caudal (LC); left middle (LM); and left apical (LA) lung lobes. BALF sampling details (volumes, exact time of collection) were recorded and samples immediately frozen on dry ice, then stored at −80° C. prior to shipment for drug content analyses.

[9] = inhaled nebulized, 2 mg, IPD = immediate post dose

In the case of `COC(=O)c1ccc2c(c1)NC(=O)/C2=C(\Nc1ccc(N(C)C(=O)CN2CCN(C)CC2)cc1)c1ccccc1` [Nintedanib, methyl (3Z)-3-[[4-[methyl-[2-(4-methylpiperazin-1-yl)acetyl]amino]anilino]-phenylmethylidene]-2-oxo-1H-indole-6-carboxylate], the “sodium chloride concentration at which nintedanib is physically unstable in solution” value [1] is given as ≥ 30 mM, the “pirfenidone parts per 1 part nintedanib (weight by weight) that stabilizes nintedanib in solution” value [2] is given as “greater than 30 parts” and the “fraction of administered nintedanib excreted in the urine” value [3] is given as “About 80%”. The inhibition [4] was “inhibited”, the inhibition [5] was “inhibited” and the inhibition [6] was “inhibited”. For the same compound, the AUC ([7]; epithelial lining fluid (ELF), inhaled or intranasal, inhaled nebulized liquid 2 mg, read-out: ELF AUC) was 3400 ng·h/mL, the Cmax ([7]; epithelial lining fluid (ELF), inhaled or intranasal, inhaled nebulized liquid 2 mg, read-out: ELF Cmax) was 4660 ng/mL and the AUC ([7]; epithelial lining fluid (ELF), oral tablet 150 mg, read-out: ELF AUC) was 1200 ng·h/mL. For the same compound, the Cmax ([7]; epithelial lining fluid (ELF), oral tablet 150 mg, read-out: ELF Cmax) was 72.7 ng/mL, the Tmax ([7]; plasma, inhaled or intranasal, inhaled nebulized liquid 2 mg) was 0.2 h and the AUC ([7]; plasma, inhaled or intranasal, inhaled nebulized liquid 2 mg, read-out: Plasma AUC) was 4 ng·h/mL. It also gave a Cmax ([7]; plasma, inhaled or intranasal, inhaled nebulized liquid 2 mg, read-out: Plasma Cmax) of 2.8 ng/mL, a Tmax ([7]; plasma, oral tablet 150 mg) of 7.8 h and an AUC ([7]; plasma, oral tablet 150 mg, read-out: Plasma AUC) of 163 ng·h/mL. The Cmax ([7]; plasma, oral tablet 150 mg, read-out: Plasma Cmax) was 13.5 ng/mL, the “adverse responses to oral dosing” value ([8]; 75 mg oral with glucose chaser) was “without any adverse responses observed” and the Cmax ([8]; epithelial lining fluid (ELF), inhaled or intranasal, 0.06 mg/kg, inhaled nebulized liquid, 2 mg (0.06 mg/kg), read-out: ELF Cmax) was 7380 ng/mL. For the same compound, the Cmax ([8]; epithelial lining fluid (ELF), inhaled or intranasal, 0.06 mg/kg, inhaled nebulized monotherapy, 2 mg (0.06 mg/kg), Table 19, read-out: ELF Cmax) was 7880 ng/mL, the AUC ([8]; epithelial lining fluid (ELF), inhaled or intranasal, 2 mg, inhaled nebulized monotherapy, 2 mg, Table 19, read-out: ELF AUC) was 7300 ng·h/mL and the AUC ([8]; epithelial lining fluid (ELF), inhaled or intranasal, 2 mg, inhaled nebulized, 2 mg, read-out: ELF AUC) was 5400 ng·h/mL. For the same compound, the half-life ([8]; epithelial lining fluid (ELF), inhaled or intranasal, inhaled nebulized, 2 mg, read-out: ELF T1/2 (α) (converted)) was 0.25 h, the Cmax ([8]; epithelial lining fluid (ELF), po, 2.14 mg/kg, oral, 75 mg (2.14 mg/kg), 3 mg/mL in water, read-out: ELF Cmax) was 74 ng/mL and the AUC ([8]; epithelial lining fluid (ELF), po, 75 mg, oral, 75 mg, read-out: ELF AUC) was 1200 ng·h/mL. For the same compound, the half-life ([8]; epithelial lining fluid (ELF), oral, 75 mg, read-out: ELF T1/2 (converted)) was 10 h, the Tmax ([8]; epithelial lining fluid (ELF), oral, 75 mg, read-out: ELF Tmax) was 10 h and the AUC ([8]; plasma, inhaled or intranasal, 2 mg, inhaled nebulized monotherapy, 2 mg, Table 19, read-out: Plasma AUC) was 4 ng·h/mL. It also gave a Cmax ([8]; plasma, inhaled or intranasal, 2 mg, inhaled nebulized monotherapy, 2 mg, Table 19, read-out: Plasma Cmax) of 3.9 ng/mL, an AUC ([8]; plasma, inhaled or intranasal, 2 mg, inhaled nebulized, 2 mg, read-out: Plasma AUC) of 7 ng·h/mL and a Cmax ([8]; plasma, inhaled or intranasal, 2 mg, inhaled nebulized, 2 mg, read-out: Plasma Cmax) of 5.9 ng/mL. The half-life ([8]; plasma, inhaled or intranasal, inhaled nebulized, 2 mg, read-out: Plasma T1/2 (α) (converted)) was 0.25 h, the AUC ([8]; plasma, po, 75 mg, oral, 75 mg, read-out: Plasma AUC) was 58 ng·h/mL and the Cmax ([8]; plasma, po, 75 mg, oral, 75 mg, read-out: Plasma Cmax) was 3.6 ng/mL. For the same compound, the half-life ([8]; plasma, oral, 75 mg, read-out: Plasma T1/2 (converted)) was 10 h, the Tmax ([8]; plasma, oral, 75 mg, read-out: Plasma Tmax) was 9 h and the “ELF Tmax” value [8, 9] was “IPD^b”. For the same compound, the “Plasma Tmax” value [8, 9] was “IPD^b”.
